According to paper PMC6095874, “Discovery of cationic nonribosomal peptides as Gram-negative antibiotics through global genome mining” (Nature Communications, 2018):
≈ marks a conversion by molar mass, not a printed value. Where a SMILES comes first, the peptide text is derived from it. Bridges are numbered along the chain shown (N, C = ends). [ ]: non-standard residue; d: D form. The star is where a group is joined. ξ: configuration not given here. Hexanoyl(4ξ-Me) = CCC(C)CCC(=O)*; dOrn = NCCC[C@@H](N)C(=O)O; Orn = NCCC[C@H](N)C(=O)O

How the values were obtained:
[1] = test system: K. pneumoniae NRRL-B-3521; type: cell-based, Klebsiella pneumoniae; settings: NRRL-B-3521, 24 h
Method: (§1) MIC was determined by broth microdilution according to CLSI guidelines. The test medium for most species was Mueller–Hinton broth (MHB). Bacteria were grown overnight to early stationary phase and adjusted in MHB to 5.0 × 10^5 c.f.u. mL^−1 in the wells of 96-well microtiter plates (Falcon® 96-Well Flat-Bottom Microplate, Tissue Culture-Treated), mixed with varying concentrations of test compounds and incubated at 37 °C for 24 h. Cell growth was evaluated by measuring the optical density at 595 nm (Thermo Scientific Multiskan FC multiplate photometer) (Waltham, MA, USA), and the MIC was defined as the lowest compound concentration at which no bacterial growth was observed. MHBs containing 10% fetal bovine serum (Gibco), 21 mM MgCl, or 1.0 mg mL^−1 LPS (lipopolysaccharides from E. coli O55:B5, Sigma-Aldrich) was used to test their inhibitory effects.

[2] = test system: E. coli; assay: Lysis assay; type: cell-based, Escherichia coli; settings: ten times the MIC, culture OD600 = 1.0, 24 h
Method: An overnight culture of E. coli TOP10 cells was diluted 1:10,000 in MHB and incubated at 37 °C with agitation at 180 rpm for 2 h (early exponential). The bacteria were then challenged with brevicidine (20 μg mL^−1), laterocidine (20 μg mL^−1), or polymyxin B (10 μg mL^−1) at ten times the MIC at room temperature without shaking. An untreated sample of cells was used as a negative control. At intervals, 10 μL aliquots were removed, centrifuged at 10,000 × g for 1 min and resuspended in 1.0 mL of sterile PBS. Tenfold serially diluted suspensions were plated on MHB agar plates and incubated at 37 °C overnight. Colonies were counted and the number of c.f.u. per mL was calculated. For analysis of lysis, 300 μL of culture (OD600 = 1.0) were treated with antibiotics at ten times the MIC for 24 h. Experiments were performed in triplicate.

[3] = test system: E. coli ATCC 25922; assay: Resistance acquisition during serial passaging; type: cell-based, Escherichia coli; settings: subinhibitory concentrations, 30-day period, MHB, 37 °C, quadruplicate
Method: E. coli ATCC 25922 was inoculated into MHB overnight at 37 °C with continuous shaking. Cells were diluted 10,000 times in MHB to about 1 × 10^6 c.f.u. mL^−1. Ten µL aliquots were drawn to a 96-well plate containing 90 µL of serially diluted brevicidine, laterocidine, and ciprofloxacin, at final concentrations of 0.5×, 1×, 1.5×, 2×, and 4× MIC. […] Plates with bacteria were incubated at 37 °C without shaking. […] This process was repeated for 30 days, and the final MIC was confirmed by the same antibacterial assay as the one described above. The experiment was performed in quadruplicate, and on each day, the sample that developed the highest resistance was measured to plot the curve. For single-step resistance, E. coli ATCC 25922 cells at 10^8 c.f.u. were plated onto Mueller–Hinton agar containing 4× MIC of brevicidine.

[4] = test system: Candida albicans; type: cell-based; settings: 24 h
[5] = test system: Colistin-resistant E. coli (E. coli ATCC 25922 carrying mcr-1); assay: MIC by broth microdilution; type: cell-based, Escherichia coli; settings: MHB, 37 °C, 24 h
Method: as §1

[6] = test system: E. coli ATCC 25922; assay: Neutropenic mouse thigh infection model; type: in vivo
Method: Given the low risk of resistance and the attractive mode of action of 1–2, an animal efficacy study was then performed in a mouse thigh model. Mice were intramuscularly infected with 1.50 × 10^6 c.f.u. of E. coli ATCC 25922. Two hours post infection, brevicidine (30 mg kg^−1) or laterocidine (15 mg kg^−1) was subcutaneously injected at two doses. […] In particular, compound 1 was highly efficacious in mice infected with E. coli and caused a 5 log10 reduction in c.f.u. in the thigh compared to the vehicle control after 24 h (Fig. 4f).
In vivo activities of brevicidine and laterocidine were tested using the mouse thigh infection model. Animal studies were performed by Pharmacology Discovery Services Taiwan Ltd. in general accordance with standard guidelines on animal welfare[38] in an AAALAC-accredited facility. The protocol was reviewed and approved by the Institutional Animal Care and Use Committee. Groups of five female-specific pathogen-free ICR (CD-1) mice weighing 22 ± 2 g (~5 weeks of age) were used. Animals were immunosuppressed with two intraperitoneal injections of cyclophosphamide, the first at 150 mg kg^−1 4 days before infection (day −4) and the second at 100 mg kg^−1 1 day before infection (day −1). On day 0, animals were inoculated intramuscularly (0.1 mL per thigh) in the right thigh with an E. coli ATCC 25922 suspension. Vehicle (10% DMSO, 1% Tween 80, 0.9% NaCl) and antibiotics were then subcutaneously injected 2 and 8 h later. Due to the limited availability of compounds 1–2, only one concentration of 1 (30 mg kg^−1) or 2 (15 mg kg^−1) was used in the present study. Precisely 26 h after inoculation, animals were euthanized by CO2 asphyxiation before their right thigh muscles were harvested. The removed muscles were homogenized in 5 mL of PBS, pH 7.4, with a Polytron homogenizer. Homogenates in the amount of 0.1 mL were used for serial tenfold dilutions and plated onto a nutrient agar medium for colony count (in c.f.u. g^−1) determination. No randomization or blinding was necessary for the animal infection models, and no samples were excluded.

[7] = Peptide binding to LPS by isothermal titration calorimetry; parameters: species or system Escherichia coli; settings: 37 °C
Method: Microcalorimetric experiments of peptide binding to LPS were performed on an MCS isothermal titration calorimeter (Microcal, Northampton, MA) at 37 °C. LPS was prepared as a 50 µM aqueous suspension in 20 mM HEPES buffer (pH 7.0) by suspension, sonication, and temperature cycling between 5 and 70 °C. This suspension was stored at 4 °C overnight prior to use. Aliquots of 100 µM peptide solutions (brevicidine and polymyxin B) were prepared in the same buffer and all solutions were degassed prior to use by stirring under vacuum for 5 min at 37 °C. After thermal equilibration, 5 µL aliquots of the peptide solution were added every 3 min into the lipid-containing cell at 37 °C with constant stirring. The change in heat during the titration steps was registered in real time and raw data were processed using the Origin® 7 software provided with the instrument. In control experiments, the corresponding peptide solution (or LPS solution) was injected into the buffer without LPS (or without peptide).

[8] = test system: rabbit erythrocytes; settings: concentrations up to 128 μg mL^−1, 2% (v/v) rabbit erythrocytes in PBS, 1 h, 37 °C, absorbance 570 nm, vs 10% Triton X-100
Method: Hemolytic activity was determined with red blood cells freshly isolated from healthy rabbits. […] The cells were incubated for 1 h at 37 °C and centrifuged for 5 min at 10,000 × g. The supernatant was transferred to a 96-well plate and the absorbance was measured at a wavelength of 570 nm with a Thermo Scientific Multiskan FC multiplate photometer. The absorbance relative to the positive control, which was treated with 10% Triton X-100, was defined as the percentage of hemolysis.

Compound: CCC(C)CCC(=O)N[C@H](CC(N)=O)C(=O)N[C@H](Cc1ccc(O)cc1)C(=O)N[C@H](Cc1c[nH]c2ccccc12)C(=O)N[C@H](CCCN)C(=O)N[C@@H](CCCN)C(=O)NCC(=O)N[C@H](CCCN)C(=O)N[C@@H](Cc1c[nH]c2ccccc12)C(=O)N[C@@H]1C(=O)N[C@@H]([C@@H](C)CC)C(=O)NCC(=O)N[C@@H](CO)C(=O)O[C@@H]1C (stereo partly shown) [Compound 1, brevicidine] ({Hexanoyl(4ξ-Me)}-[dN][dY][dW][dOrn][Orn]G[dOrn]WTIGS; ester 9-C)
- MIC [1]: 4 mg/L (≈ 2.63 µM)
- lysis of E. coli cells [2]: completely lysed
- resistance development during serial passaging [3]: did not develop resistance
- MIC [4]: >64 mg/L
- MIC [5]: 2 mg/L (≈ 1.32 µM)
- reduction in c.f.u. in the thigh compared to the vehicle control ([6]; 30 mg kg^−1 subcutaneous at 2 and 8 h post infection, neutropenic ICR mice (n = 5), after 24 h): 5 log10
- viable bacteria in thigh ([6]; brevicidine 30 mg kg^−1 twice s.c., five mice, after 26 h, Mann–Whitney P < 0.01): reduced number of viable bacteria
- binding to LPS (ITC) ([7]; 20 mM HEPES pH 7.0): strong binding to LPS
- Kd ([7]; ITC, 50 µM LPS in 20 mM HEPES pH 7.0, 100 µM peptide, read-out: dissociation constant Kd for LPS): 6.5 µM
- lysis of erythrocytes (hemolysis) [8]: neither caused the lysis of erythrocytes
